Values quoted from earlier work in publication PMC9574858, “Linker-Dependent Folding Rationalizes PROTAC Cell Permeability” (Journal of Medicinal Chemistry, 2022).

Biological target: CRBN (Homo sapiens, UniProt Q96SW2)
Set-up: method as in PMID 29358579

Sequence of CRBN (Q96SW2 whole entry): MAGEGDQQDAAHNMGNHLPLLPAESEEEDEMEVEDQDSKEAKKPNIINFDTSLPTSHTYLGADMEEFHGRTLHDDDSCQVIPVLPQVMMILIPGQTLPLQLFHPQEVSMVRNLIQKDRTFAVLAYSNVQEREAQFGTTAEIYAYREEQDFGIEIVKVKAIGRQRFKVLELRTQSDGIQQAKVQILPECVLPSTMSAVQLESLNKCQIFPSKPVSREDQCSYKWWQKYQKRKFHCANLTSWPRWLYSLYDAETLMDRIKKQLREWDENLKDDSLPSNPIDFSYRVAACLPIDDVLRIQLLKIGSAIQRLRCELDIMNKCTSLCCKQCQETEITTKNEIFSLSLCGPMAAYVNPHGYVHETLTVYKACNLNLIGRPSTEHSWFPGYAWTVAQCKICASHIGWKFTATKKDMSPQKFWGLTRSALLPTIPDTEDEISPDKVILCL

**Q.** With `O=C1CC[C@H](N2C(=O)c3ccccc3C2=O)C(=O)N1` [S-form of thalidomide, thalidomide] as the compound, how does the “affinity for CRBN compared with the R-form” value read?
**A.** 1 order of magnitude higher
